Peptide text beside a SMILES is read from it.
Test system: PGase
Experiment: Km and Vmax of PGase substrates (Lineweaver-Burk plot)
Format: biochemical, Bacillus circulans
Settings: 0.05 M phosphate buffer, pH 7.0, 30° C.
Procedure: A 1 mL enzyme preparation containing 0.25-0.50 mg protein was added to 2-5 mL substrate in 0.05 M phosphate buffer, pH 7.0. The substrate concentrations were 0.2% CBZ-L-Gln, 0.2% BOC-Gln-Pro and 0.2% peptone type IV. Peptone solutions (5%) were ultrafiltered prior to use, through the 30 kd spiral membrane incubated at 30° C. for 30 or 60 min, then the ammonia constant of the samples was determined with a model 95-10 ammonia electrode (Orion Research Inc., Cambridge, Mass.).
The effects of the molarity and pH of the sodium phosphate buffer on PGase activity were studied. The progress of the PGase deamidation reaction of Peptone IV in 0.05 M phosphate buffer, pH 7.0, as a function of time was measured at 25° C. and 30° C.

Km [µM]	Vmax [µmol/min/mg]	SMILES
143	0.52	CC(C)(C)OC(=O)N[C@@H](CCC(N)=O)C(=O)N1CCC[C@H]1C(=O)O [BOC-glutamine-proline, t-BOC-L-glutaminyl-L-proline] (HELM PEPTIDE1{[CC(C)(C)OC(=O)[*:2]].Q.P}$$$$V2.0)
67	–	NC(=O)CC[C@H](NC(=O)OCc1ccccc1)C(=O)O [CBZ-glutamine, CBZ-L-glutamine]

Source: patent publication US5250305A, “Process for enzymatic ultrafiltration of deamidated protein” (The United States of America as represented by the …, priority 1990, dated 1993)
